Data from patent EP1308501A1, “Fermented beverages comprising yeast transformed by the ATF2 gene” (Pernod-Ricard, priority 2001, dated 2003).
Like-named read-outs stand apart in the source and are kept apart here.

Key:
[1] = test system: production d'esters; conditions: six mois après la mise en bouteille; cited from earlier work
[2] = test system: alcool acétyle transférase; conditions: partially purified enzyme, cited from earlier work
[3] = molecular target: T1, Atf2p (Saccharomyces cerevisiae, UniProt P53296); conditions: cited from earlier work
T1 sequence (P53296 1-535): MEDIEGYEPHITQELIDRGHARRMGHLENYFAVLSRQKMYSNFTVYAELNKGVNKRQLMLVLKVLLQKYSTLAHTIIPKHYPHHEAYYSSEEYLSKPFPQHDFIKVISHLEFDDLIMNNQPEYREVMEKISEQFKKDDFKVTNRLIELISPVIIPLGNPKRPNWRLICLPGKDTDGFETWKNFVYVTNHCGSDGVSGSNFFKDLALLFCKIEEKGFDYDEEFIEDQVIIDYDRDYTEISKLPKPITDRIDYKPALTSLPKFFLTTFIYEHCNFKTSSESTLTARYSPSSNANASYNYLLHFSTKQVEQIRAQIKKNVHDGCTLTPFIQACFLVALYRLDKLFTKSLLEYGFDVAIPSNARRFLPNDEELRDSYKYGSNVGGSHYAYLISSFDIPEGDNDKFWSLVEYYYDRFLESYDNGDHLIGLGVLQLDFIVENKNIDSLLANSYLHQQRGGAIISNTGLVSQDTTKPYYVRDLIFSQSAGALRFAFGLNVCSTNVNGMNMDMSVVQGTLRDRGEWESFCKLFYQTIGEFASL

[4] = test system: YRC1001/pRC124; experiment: Bioconversion of alcohols added to malt medium by a strain overexpressing ATF2; format: cell-based, Saccharomyces cerevisiae
Protocol: Transformation dans la souche […], sous contrôle du promoteur proTEF1, le gène ATF2 (pRC124). Les précultures sont réalisées dans du milieu liquide SC20 (Sherman, 1991) dépourvu d'uracile et selon la même procédure que dans l'exemple 3. Les cultures sont ensemencées comme décrit précédemment dans du milieu malt, cette fois non glucosé. Ce dernier est supplémenté en leucine, lysine et histidine. A ce milieu malt, on ajoute juste avant ensemencement des alcools à raison de 100 μg/ml. Après fermentation pendant 98 heures, on analyse -comme décrit précédemment- les alcools et leurs produits dérivés (esters […] correspondant à l'alcool et son ester éthylé). La capacité de bioconversion est ensuite exprimée par le rapport « ester acétylé de l'alcool ajouté »/« somme des alcools et produits dérivés ». Cette valeur donne une indication […] au milieu extérieur par la souche de levure transformée. Les résultats sont […] Tableau 4.

[5] = alcohol added at 100 µg/ml, malt non glucosé, 98 heures, ratio ester acétylé de l'alcool ajouté / somme des alcools et produits dérivés

In the case of `CC(=O)OCCC(C)C` [acétate d'isoamyle], the “réduction des esters acétylés” value [1] is listed as roughly 2 fois.

In the case of `CC(=O)OCCc1ccccc1` [acétatede 2-phényléthyle], the “réduction des esters acétylés” value [1] is listed as roughly 2 fois.

For `CC(=O)SCCNC(=O)CCNC(=O)[C@H](O)C(C)(C)COP(=O)(O)OP(=O)(O)OC[C@H]1O[C@@H](n2cnc3c(N)ncnc32)[C@H](O)[C@@H]1OP(=O)(O)O` [acétyle-CoA], the Km ([2]; co-factor) is listed as 25 to 40 µM and the Km [3] is listed as 1 µM.

In the case of `OCc1ccccc1` [benzylalcool], the “Bioconversion par YRC1001/pRC124” value [4, 5] was 0,163.

In the case of `CC(C)CCO` [isoamylalcool], the Km ([2]; acceptor) is listed as 25000 µM and the “Bioconversion par YRC1001/pRC124” value [4, 5] is listed as 0,045.

With `CCCCO` [n-butanol] the “Bioconversion par YRC1001/pRC124” value [4] was 0,021.

For `CC(=O)[C@H]1CC[C@H]2[C@@H]3CC=C4C[C@@H](O)CC[C@]4(C)[C@H]3CC[C@]12C` [pregnénolone], the Km [3] is given as 0.5 µM.
